Assay results: ChEMBL document CHEMBL1201862, “PubChem BioAssay data set” (2004)
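A five-concentration, 48-hour dose response in 96-well plates underlies each endpoint, interpolated linearly between surrounding concentrations. Here, GI50 denotes the concentration required for 50% inhibition of growth.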 Activity calls are given as the source filed them. Rule as the data show it: active = GI50 up to about 1.1 µM and inactive = higher.

Legend:
Assay in all cases: growth of human tumour cells (NCI), 48 h
786-0 = test system: 786-0
A498 = test system: A498
A549 = test system: A549
ACHN = test system: ACHN
BT-549 = test system: BT-549
CAKI-1 = test system: CAKI-1
CCRF-CEM = test system: CCRF-CEM
COLO 205 = test system: COLO 205
DU-145 = test system: DU-145
EKVX = test system: EKVX
HCC 2998 = test system: HCC 2998
HCT-116 = test system: HCT-116
HCT-15 = test system: HCT-15
HL-60 = test system: HL-60
HOP-62 = test system: HOP-62
HOP-92 = test system: HOP-92
HT-29 = test system: HT-29
Hs-578T = test system: Hs-578T
IGROV-1 = test system: IGROV-1
KM12 = test system: KM12
LOX IMVI = test system: LOX IMVI
M14 = test system: M14
MCF7 = test system: MCF7
MDA-MB-231 = test system: MDA-MB-231
MDA-MB-435 = test system: MDA-MB-435
MDA-N = test system: MDA-N
MOLT-4 = test system: MOLT-4
Malme-3M = test system: Malme-3M
NCI-H23 = test system: NCI-H23
NCI-H460 = test system: NCI-H460
NCI-H522 = test system: NCI-H522
NCI/ADR-RES = test system: NCI/ADR-RES
OVCAR-3 = test system: OVCAR-3
OVCAR-4 = test system: OVCAR-4
OVCAR-5 = test system: OVCAR-5
OVCAR-8 = test system: OVCAR-8
PC-3 = test system: PC-3
RPMI-8226 = test system: RPMI-8226
RXF 393 = test system: RXF 393
SF-268 = test system: SF-268
SF-295 = test system: SF-295
SF-539 = test system: SF-539
SK-MEL-28 = test system: SK-MEL-28
SK-MEL-2 = test system: SK-MEL-2
SK-MEL-5 = test system: SK-MEL-5
SK-OV-3 = test system: SK-OV-3
SN12C = test system: SN12C
SNB-19 = test system: SNB-19
SW-620 = test system: SW-620
T47D = test system: T47D
TK-10 = test system: TK-10
U-251 = test system: U-251
UACC-257 = test system: UACC-257
UACC-62 = test system: UACC-62
K562 = test system: K562
NCI-H226 = test system: NCI-H226
SNB-75 = test system: SNB-75
UO-31 = test system: UO-31

COc1cc([C@@H]2c3cc4c(cc3[C@@H](c3c(O)cc(O)c5c3O[C@H](c3ccc(O)c(O)c3)[C@H](OC(=O)c3cc(O)c(O)c(O)c3)C5)[C@H]3COC(=O)[C@H]23)OCO4)cc(OC)c1O was tested, and the GI50 (786-0) was 22.5 µM (inactive), the GI50 (A498) was 74.5 µM (inactive) and the GI50 (A549) was 29.4 µM (inactive). For the same compound, the GI50 (ACHN) was 53.7 µM (inactive), the GI50 (BT-549) was > 100 µM (inactive) and the GI50 (CAKI-1) was 76.6 µM (inactive). For the same compound, the GI50 (CCRF-CEM) was 24.4 µM (inactive), the GI50 (COLO 205) was 28.7 µM (inactive) and the GI50 (DU-145) was 32 µM (inactive). For the same compound, the GI50 (EKVX) was 44.7 µM (inactive), the GI50 (HCC 2998) was 33.8 µM (inactive) and the GI50 (HCT-116) was 23.7 µM (inactive). For the same compound, the GI50 (HCT-15) was 40.8 µM, the GI50 (HL-60) was 19.5 µM (inactive) and the GI50 (HOP-62) was 51.8 µM (inactive). For the same compound, the GI50 (HOP-92) was 58.2 µM (inactive), the GI50 (HT-29) was 25 µM (inactive) and the GI50 (Hs-578T) was 96.4 µM (inactive). For the same compound, the GI50 (IGROV-1) was 57.7 µM (inactive), the GI50 (KM12) was 32 µM (inactive) and the GI50 (LOX IMVI) was 29.2 µM (inactive). For the same compound, the GI50 (M14) was 23.4 µM (inactive), the GI50 (MCF7) was 42 µM (inactive) and the GI50 (MDA-MB-231) was 57.8 µM (inactive). The GI50 (MDA-MB-435) was 22.6 µM (inactive), the GI50 (MDA-N) was 18.4 µM (inactive) and the GI50 (MOLT-4) was 33.7 µM (inactive). The GI50 (Malme-3M) was > 100 µM (inactive), the GI50 (NCI-H23) was 69.2 µM (inactive) and the GI50 (NCI-H460) was 32.5 µM (inactive). For the same compound, the GI50 (NCI-H522) was 24 µM (inactive), the GI50 (NCI/ADR-RES) was 54.8 µM (inactive) and the GI50 (OVCAR-3) was 28.2 µM (inactive). For the same compound, the GI50 (OVCAR-4) was > 100 µM (inactive), the GI50 (OVCAR-5) was 39.4 µM (inactive) and the GI50 (OVCAR-8) was 35.6 µM (inactive). For the same compound, the GI50 (PC-3) was 42.8 µM (inactive), the GI50 (RPMI-8226) was 26.6 µM (inactive) and the GI50 (RXF 393) was 59.4 µM (inactive). The GI50 (SF-268) was 30.8 µM (inactive), the GI50 (SF-295) was 39.3 µM (inactive) and the GI50 (SF-539) was 24.1 µM (inactive). The GI50 (SK-MEL-28) was 79.8 µM (inactive), the GI50 (SK-MEL-2) was 57.9 µM (inactive) and the GI50 (SK-MEL-5) was 25.8 µM (inactive). The GI50 (SK-OV-3) was 44.1 µM (inactive), the GI50 (SN12C) was 22.3 µM (inactive) and the GI50 (SNB-19) was 30.1 µM (inactive). The GI50 (SW-620) was 44.4 µM (inactive), the GI50 (T47D) was > 100 µM (inactive) and the GI50 (TK-10) was 92.3 µM (inactive). The GI50 (U-251) was 46.5 µM (inactive), the GI50 (UACC-257) was > 100 µM (inactive) and the GI50 (UACC-62) was 98.9 µM (inactive).
With Cc1cc2c(O)c(c1)CN(Cc1ccccc1)Cc1cc(C)cc(c1O)CN(Cc1ccccc1)Cc1cc(C)cc(c1O)CN(Cc1ccccc1)C2 the GI50 (786-0) was > 100 µM (inactive), the GI50 (A498) was > 100 µM (inactive) and the GI50 (A549) was > 100 µM (inactive). The GI50 (ACHN) was > 100 µM (inactive), the GI50 (BT-549) was > 100 µM (inactive) and the GI50 (CAKI-1) was > 100 µM (inactive). For the same compound, the GI50 (CCRF-CEM) was > 100 µM (inactive), the GI50 (COLO 205) was > 100 µM (inactive) and the GI50 (DU-145) was > 100 µM (inactive). The GI50 (HCC 2998) was > 100 µM (inactive), the GI50 (HCT-116) was > 100 µM (inactive) and the GI50 (HCT-15) was over 100 µM. For the same compound, the GI50 (HL-60) was > 100 µM (inactive), the GI50 (HOP-62) was 46.2 µM (inactive) and the GI50 (HT-29) was > 100 µM (inactive). The GI50 (Hs-578T) was > 100 µM (inactive), the GI50 (IGROV-1) was > 100 µM (inactive) and the GI50 (K562) was > 100 µM (inactive). For the same compound, the GI50 (KM12) was > 100 µM (inactive), the GI50 (LOX IMVI) was > 100 µM (inactive) and the GI50 (M14) was > 100 µM (inactive). The GI50 (MCF7) was > 100 µM (inactive), the GI50 (MDA-MB-231) was > 100 µM (inactive) and the GI50 (MDA-MB-435) was > 100 µM (inactive). For the same compound, the GI50 (MDA-N) was > 100 µM (inactive), the GI50 (MOLT-4) was > 100 µM (inactive) and the GI50 (Malme-3M) was > 100 µM (inactive). For the same compound, the GI50 (NCI-H226) was > 100 µM (inactive), the GI50 (NCI-H23) was > 100 µM (inactive) and the GI50 (NCI-H460) was > 100 µM (inactive). The GI50 (NCI-H522) was > 100 µM (inactive), the GI50 (NCI/ADR-RES) was > 100 µM (inactive) and the GI50 (OVCAR-3) was > 100 µM (inactive). The GI50 (OVCAR-4) was > 100 µM (inactive), the GI50 (OVCAR-5) was > 100 µM (inactive) and the GI50 (OVCAR-8) was > 100 µM (inactive). For the same compound, the GI50 (PC-3) was > 100 µM (inactive), the GI50 (RPMI-8226) was > 100 µM (inactive) and the GI50 (RXF 393) was 75.2 µM (inactive). The GI50 (SF-268) was > 100 µM (inactive), the GI50 (SF-295) was > 100 µM (inactive) and the GI50 (SF-539) was > 100 µM (inactive). The GI50 (SK-MEL-28) was > 100 µM (inactive), the GI50 (SK-MEL-2) was 32.3 µM (inactive) and the GI50 (SK-MEL-5) was > 100 µM (inactive). For the same compound, the GI50 (SK-OV-3) was > 100 µM (inactive), the GI50 (SN12C) was > 100 µM (inactive) and the GI50 (SNB-19) was > 100 µM (inactive). For the same compound, the GI50 (SNB-75) was 50.8 µM (inactive), the GI50 (SW-620) was > 100 µM (inactive) and the GI50 (T47D) was > 100 µM (inactive). For the same compound, the GI50 (TK-10) was > 100 µM (inactive), the GI50 (U-251) was > 100 µM (inactive) and the GI50 (UACC-257) was > 100 µM (inactive). For the same compound, the GI50 (UACC-62) was > 100 µM (inactive) and the GI50 (UO-31) was > 100 µM (inactive).
COc1cccc(/C=N/n2c(-c3ccccc3)n[nH]c2=O)c1 was tested, and the GI50 (786-0) was 40.8 µM (inactive), the GI50 (A498) was 24.4 µM (inactive) and the GI50 (A549) was 91.2 µM (inactive). The GI50 (ACHN) was > 100 µM (inactive), the GI50 (BT-549) was 26.9 µM (inactive) and the GI50 (CAKI-1) was 53 µM (inactive). For the same compound, the GI50 (CCRF-CEM) was > 100 µM (inactive), the GI50 (COLO 205) was > 100 µM (inactive) and the GI50 (DU-145) was 49.5 µM (inactive). The GI50 (EKVX) was > 100 µM (inactive), the GI50 (HCC 2998) was > 100 µM (inactive) and the GI50 (HCT-116) was 28.2 µM (inactive). The GI50 (HCT-15) was over 100 µM, the GI50 (HOP-62) was 25.9 µM (inactive) and the GI50 (HT-29) was > 100 µM (inactive). For the same compound, the GI50 (Hs-578T) was 22.7 µM (inactive), the GI50 (K562) was > 100 µM (inactive) and the GI50 (KM12) was 85.5 µM (inactive). The GI50 (M14) was > 100 µM (inactive), the GI50 (MCF7) was 75.5 µM (inactive) and the GI50 (MDA-MB-231) was 29.5 µM (inactive). For the same compound, the GI50 (MDA-MB-435) was > 100 µM (inactive), the GI50 (MDA-N) was > 100 µM (inactive) and the GI50 (MOLT-4) was > 100 µM (inactive). For the same compound, the GI50 (Malme-3M) was > 100 µM (inactive), the GI50 (NCI-H226) was 43.7 µM (inactive) and the GI50 (NCI-H23) was 27.3 µM (inactive). The GI50 (NCI-H460) was 42.2 µM (inactive), the GI50 (NCI/ADR-RES) was 39.4 µM (inactive) and the GI50 (OVCAR-3) was > 100 µM (inactive). The GI50 (OVCAR-4) was > 100 µM (inactive), the GI50 (OVCAR-5) was > 100 µM (inactive) and the GI50 (OVCAR-8) was 29.8 µM (inactive). The GI50 (PC-3) was > 100 µM (inactive), the GI50 (RPMI-8226) was > 100 µM (inactive) and the GI50 (SF-268) was 17.5 µM (inactive). The GI50 (SF-295) was 21.2 µM (inactive), the GI50 (SF-539) was 28.1 µM (inactive) and the GI50 (SK-MEL-28) was > 100 µM (inactive). For the same compound, the GI50 (SK-MEL-2) was 34.6 µM (inactive), the GI50 (SK-OV-3) was 44.2 µM (inactive) and the GI50 (SN12C) was 87.7 µM (inactive). For the same compound, the GI50 (SNB-19) was 35.7 µM (inactive), the GI50 (SNB-75) was 34.3 µM (inactive) and the GI50 (SW-620) was > 100 µM (inactive). For the same compound, the GI50 (T47D) was 27.5 µM (inactive), the GI50 (U-251) was 34.5 µM (inactive) and the GI50 (UACC-257) was 42.6 µM (inactive). For the same compound, the GI50 (UACC-62) was 72.4 µM (inactive) and the GI50 (UO-31) was > 100 µM (inactive).
